Assay results: publication PMC9050161 (RSC Advances, 2020)

Experiments:
[1] = Chemical inhibition assay, glucuronidation of PI-103 in pooled HLM; type: in vitro ADME, human
[2] = Chemical inhibition assay, phase I metabolism of PI-103 in pooled HLM; type: in vitro ADME, human; details: inhibitor 0.1 μM (CYP1A2 inhibitor)

Row | SMILES | activity of PI-103 glucuronidation in HLM ([1]; inhibitor 10 μM) | other results
1 | C[C@]12CC[C@@H](O)C[C@@H]1CC[C@@H]1[C@@H]2CC[C@]2(C)C(=O)CC[C@@H]12 [androsterone] | 69.36 % of the control values | –
2 | C[C@H](CCC(=O)O)[C@H]1CC[C@H]2[C@@H]3[C@H](O)C[C@@H]4C[C@H](O)CC[C@]4(C)[C@H]3CC[C@]12C [CDCA] | – | activity of PI-103 glucuronidation in HLM ([1]; inhibitor 20 μM): no changes
3 | Cc1cn(-c2cc(NC(=O)c3ccc(C)c(Nc4nccc(-c5cccnc5)n4)c3)cc(C(F)(F)F)c2)cn1 [nilotinib] | 82.37 % of the control values | –
4 | CN(C)CCC=C1c2ccccc2CCc2ccccc21 [amitriptyline] | no changes | –
5 | O=c1cc(-c2ccccc2)oc2c1ccc1ccccc12 [α-naphthoflavone] | – | remaining activity of PI-103 phase I metabolism in HLM [2]: 53.37 % of the control values
